# Like-named read-outs stand apart in the source and are kept apart here.
# How the values were obtained:
# [1] = system: normal subject
# Experimental: Five normal subjects were used as controls. One subject was used to investigate the effect of clonidine on normal skin (i.e., the top of the foot). The four remaining subjects were used to assess the effect of intradermal norepinephrine and phenylephrine in normal skin.
# To exclude further local anesthetic effects of clonidine, a clonidine patch was applied to the top of a normal subject's foot and sensory testing was performed prior to and 40 hours after the patch application.
# [2] = system: patient with SMP
# [3] = system: patients with SMP or SIP
# Description: Patient Selection and Control Subjects: Six normotensive patients with chronic ongoing pain and cutaneous hyperalgesia to mechanical and cooling stimuli following soft tissue or nerve trauma were examined. All patients had previously undergone sympathetic blocks (i.e., local anesthetic blockade of the appropriate sympathetic ganglia) to assess the involvement of the sympathetic nerves in their pain state.
# A series of 2-7 patches were applied consecutively to different sites within the hyperalgesic zone. Each patch was left in place for 2-10 days within this affected zone. Prior to, during and immediately after drug application, the following parameters were monitored: heart rate, blood pressure, ongoing pain and pain to mechanical and cold stimuli.
# The scale consisted of a 100 mm line where “no pain” and “most intense pain” were indicated on the left and right ends of the scale respectively. […] The mechanical stimuli included innocuous brushing with a camel's hair brush and innocuous pressure from the 206 g weight of a 13 mm diameter (i.e., 2N) brass probe. Pain thresholds to mechanical stimuli were determined in the area within and surrounding the patch sites using calibrated von Frey filaments. The cooling stimulus consisted of small drops of acetone lightly placed onto the patient's skin. […] 3) Tactile sensibility: To rule out local anesthetic effects, the detection (touch) thresholds were determined in the area within the surrounding selected patch sites using calibrated von Frey filaments. In addition, the patient's ability to distinguish the blunt from the sharp ends of a pin was also assessed. The patients were instructed to close their eyes during the hyperalgesia and von Frey threshold testing procedures.
# [4] = system: healthy control subjects; experiment: Intradermal norepinephrine and phenylephrine in normal skin of control subjects; format: in vivo, human
# Experimental: Five normal subjects were used as controls.
# Effects of Intradermal Norepinephrine and Phenylephrine: In two patients, intradermal injections of the non-specific α-adrenergic agonist norepinephrine (5 μg in 10 μl normal saline) or the α-adrenergic agonist phenylephrine (10 μg in 10 μl normal saline) were made at a patch site immediately after removing the patch. […] All injection were made in a single-blinded fashion. The patients and control subjects were instructed to rate the magnitude of any evoked pain and resultant hyperalgesia on a verbal scale from 0 to 10.
# [5] = system: patients with SMP; settings: cited from earlier work; for effect on pain in patients with SMP: in vivo
# [6] = system: patients with SMP; experiment: Intradermal norepinephrine and phenylephrine in SMP patients (clonidine patch site, normal site)
# Experimental: Effects of Intradermal Norepinephrine and Phenylephrine: In two patients, intradermal injections of the non-specific α-adrenergic agonist norepinephrine (5 μg in 10 μl normal saline) or the α-adrenergic agonist phenylephrine (10 μg in 10 μl normal saline) were made at a patch site immediately after removing the patch. Norepinephrine and phenylephrine injections were also made at control sites on the patients' normal limb and into the normal skin of 4 healthy control subjects. […] All injection were made in a single-blinded fashion. The patients and control subjects were instructed to rate the magnitude of any evoked pain and resultant hyperalgesia on a verbal scale from 0 to 10.
# [7] = system: α1 and α2 receptors; settings: cited from earlier work
# [8] = system: patients with SMP; experiment: Intravenous phentolamine block in patients with SMP; format: in vivo, human
# Experimental: If peripheral α-adrenergic receptors are blocked completely, skin temperature would approach core temperature. Such a blockage would produce profound hypotension and a reflex tachycardia. […] This dose ranged from 35 mg to 45 mg over a 30 minute period.
# The heart rate, systolic and diastolic blood pressure changes produced by phentolamine in a typical patient were relatively mild. In the first seven patients phentolamine alone was administered.
# The patient was diagnosed as having SMP and then underwent local LABSG, and the administration of phentolamine systemically by intravenous injection.
# Seventeen patients received both phentolamine and LABSG. The time of maximum relief of stimulus evoked pain correlated highly with the time at which there was maximum relief of stimulus-independent pain. All pain scores were converted to percent pain relief. The peak relief of stimulus independent pain for the LABSG compares favorably to the peak relief obtained from the phentolamine block. […] Patients with less than 50% pain relief from both procedures were considered to have pain independent of SMP. There was a high correlation of the results of the two procedures (r=0.78).
# [9] = in vivo; cited from earlier work
smiles,measurement,setting,value
Clc1cccc(Cl)c1N=C1NCCN1 [clonidine],detection or pain threshold to mechanical stimuli in a normal subject,"[1]; Example 2, test for local anesthetic effect",did not alter
same,pain and detection threshold to von Frey filaments,"[1]; top of normal subject's foot, 40 hours after patch application",Neither the pain nor detection threshold to von Frey filaments were affected
same,"time to reduction of pain evoked by deep pressure, light brushing and cooling stimuli",[2]; after patch application,24 to 36 h
same,time to complete abolition of evoked pain,[2]; following patch application,≤ 48 h
same,persistence of effect after removal of the patch,"[2]; human, in vivo",more than 24 hours
same,"adverse side effects, cardiovascular parameters",[2]; same patient,no adverse side effects or changes in cardiovascular parameters
same,hyperalgesia of skin surrounding the patch,[2]; same patient,remained hyperalgesic
same,relief of hyperalgesia in the skin underlying the patch,"[2]; sciatic nerve injury patient, 0.2 or 0.3 mg/day patch, 6 patches, 2-10 days each",Complete relief
same,detection threshold to mechanical stimuli in the patient,[2]; test for local anesthetic effect,did not alter
same,mechanical detection thresholds inside and outside the patch site,[3]; Case 1,identical
same,pain threshold to von Frey filaments within the patch site,[3]; Case 1,approximated the patient's ‘normal’ pain threshold
same,ratings of stimulus-independent pain,[3]; Case 1,not affected
same,time hyperalgesia still absent after removing a patch,[3]; Case 1,at least 12 hours
same,Mechanical Hyperalgesia: post-clonidine,"[3]; Case 1, SMP, lower extremity",−
same,Touch Detection Threshold: post-clonidine,"[3]; Case 1, SMP, pre-clonidine 4",4 bars
same,ability to distinguish sharp from blunt stimuli,"[3]; Case 1, after patch removal",not affected
same,"mechanical (brush, pressure) and cooling (acetone) stimuli at patch site","[3]; Case 1, after removal of patch applied for 36 hours",detected but were not painful
same,pain rating to light brushing at patch site,"[3]; Case 1, after removal of patch, before norepinephrine injection, untreated skin 4 out of 10",1 out of 10
same,detection thresholds,"[3]; Case 1, four patches (FIG. 2)",unchanged
same,hyperalgesia to mechanical stimuli,"[3]; Case 1, four patches with quantitative sensory testing (FIG. 2)","greatly reduced and, in many cases, completely eliminated"
same,return of hyperalgesia,"[3]; Case 1, from patch application",within less than a week
same,time to reduction of mechanical hyperalgesia after patch applied,"[3]; Case 1, noted by patient",36 to 48 h
same,Mechanical Hyperalgesia: post-clonidine,"[3]; Case 2, SMP, lower extremity",−
same,Touch Detection Threshold: post-clonidine,"[3]; Case 2, SMP, pre-clonidine 1",1 bars
same,Touch Detection Threshold: post-clonidine,"[3]; Case 3, SMP, pre-clonidine 1.5",1.5 bars
same,reduction of ongoing pain,[3]; Case 4,50-75%
same,Mechanical Hyperalgesia: post-clonidine,"[3]; Case 4, SMP, face",−
same,Touch Detection Threshold: post-clonidine,"[3]; Case 4, SMP, pre-clonidine 0.5",0.5 bars
same,relief of hyperalgesia throughout entire affected zone,"[3]; Case 4, application to the upper lip",complete relief of hyperalgesia
same,Mechanical Hyperalgesia: post-clonidine,"[3]; Case 5, SIP, upper extremity",+
same,hyperalgesia and ongoing pain,"[3]; Case 5, SIP, application to palmar aspect of the hand",Neither the patient's hyperalgesia nor ongoing pain were improved
same,Touch Detection Threshold: post-clonidine,"[3]; Case 5, SIP, pre-clonidine 1",1 bars
same,hyperalgesia to cold stimuli,"[3]; Case 6, SIP",not affected
same,Mechanical Hyperalgesia: post-clonidine,"[3]; Case 6, SIP, lower extremity",+
same,reduction in ongoing pain and mechanical hyperalgesia to brush stimuli,"[3]; Case 6, SIP, patches on dorsum of the foot",approximately 35%
same,Touch Detection Threshold: post-clonidine,"[3]; Case 6, SIP, pre-clonidine 2",2 bars
same,overall level of stimulus-independent pain,"[3]; Cases 2, 3",did not report any reduction
same,extent of hyperalgesia relief,"[3]; Cases 2, 3, zone greater than half of lower extremity",only eliminated hyperalgesia at or near the site of drug application
same,alteration in blood pressure or heart rate,[3]; any of the patients,No appreciable alteration
same,pain or hyperalgesia (summary),"[3]; cases 5 and 6, pain independent of the sympathetics",little effect on pain or hyperalgesia
same,skin reaction surrounding the patch site,"[3]; following some patch applications, treatment discontinued in cases 1, 4",erythematous rash
same,mechanical and cold hyperalgesia at the site of drug administration (summary),[3]; patients with SMP,significantly reduced mechanical and cold hyperalgesia
same,side effects from clonidine patches,[3]; six patients,minor
NC[C@H](O)c1ccc(O)c(O)c1 [norepinephrine],pain and hyperalgesia after intradermal injection into the leg,"[4]; four control subjects, norepinephrine 5 μg","mild, short lasting pain and no hyperalgesia"
same,pain or hyperalgesia in normal subjects,[5]; intradermal injection,does not cause pain or hyperalgesia
same,effect on pain and hyperalgesia relieved by sympathectomy or sympathetic block,"[5]; intradermal injection, patients",rekindles the pain and hyperalgesia
same,pain evoked by injection at clonidine patch site,"[6]; Case 1, intradermal 5 μg in 10 μl saline","intense, burning pain sensation"
same,mechanical hyperalgesia rating at the patch site,"[6]; Case 1, twenty-five minutes after injection",3.5 out of 10
same,pain and hyperalgesia after injection into normal limb,"[6]; Cases 1 and 4, normal limb","evoked intense pain, but did not result in hyperalgesia"
CC(COc1ccccc1)N(CCCl)Cc1ccccc1 (stereo not shown) [phenoxybenzamine],potency in blocking α1 (postsynaptic) receptors relative to α2 receptors,[7],approximately 100 fold
same,effect on pain in patients with SMP,[5],can be effective in relieving pain
Cc1ccc(N(CC2=NCCN2)c2cccc(O)c2)cc1 [phentolamine],"pain relief following the blocks (local anesthetic sympathetic ganglion block, i.v. phentolamine)",[8]; Example 3 cases 1-4 (case 2 had no phentolamine block),70-100%
same,effect of block on pain,"[8]; Example 3 cases 5, 6 (SIP)",not affected
same,side effect: dizziness,[8]; IV phentolamine,2 patients
same,side effect: headache,[8]; IV phentolamine,3 patients
same,side effect: nasal stuffiness,[8]; IV phentolamine,12 patients
same,pain relief in patients with SMP (preliminary studies),[8]; cumulative dose 35 mg to 45 mg over a 30 minute period,effectively relieved pain
same,heart rate change,"[8]; first seven patients, phentolamine alone",increased moderately
same,time for pain to return to within 75% of baseline,[8]; five patients with more than 50% pain relief from phentolamine block,2 to 7 h
same,pain relief with the phentolamine block,[8]; one patient with 45% maximum relief with LABSG,no relief
same,pulse rate change,[8]; patients pretreated with propranolol 1-2 mg,minimal increase
same,mean pain relief,[8]; patients who had 50% or greater pain relief following LABSG,75%
same,reduction in pain as measured by visual analysis scores,"[8]; person, SMP right foot, IV, accumulated dose of 25 mg over 15 minutes",80%
same,time course over which pain gradually returned,[8]; same patient,about three
same,time pain remained at low level,"[8]; same patient, after last phentolamine dose",about two
same,patient's pain relieved,"[8]; same patient, after two further injections each of 10 mg",over 80%
same,gradual decrease in stimulus-independent pain,"[8]; same patient, first 4 boli IV, total dose 15 mg",about 50%
same,blood pressure change,"[8]; supine, with or without propranolol",little effected
same,potency in inhibiting α1- relative to α2-adrenergic receptors,[7],three to five
same,plasma half-life,[9],approximately 20 minutes
same,effect on sympathetically-maintained pain and hyperalgesia,[5]; intravenous administration,rapidly abolishes sympathetically-maintained pain and hyperalgesia
CNC[C@H](O)c1cccc(O)c1 [phenylephrine],pain and hyperalgesia after injections,"[4]; control subjects, phenylephrine 10 μg","Only brief, mild pain sensations and no hyperalgesia"
same,pain evoked at control site (volar forearm),[6]; Case 4,moderate pain of shorter duration
same,ongoing level of pain,"[6]; Case 4, approximately 25 minutes after injection",increased substantially
same,pain evoked by injection at clonidine patch site,"[6]; Case 4, intradermal 10 μg in 10 μl saline, after 3 days of clonidine",intense stinging pain
COc1cc2nc(N3CCN(C(=O)c4ccco4)CC3)nc(N)c2cc1OC [prazosin],receptor subtype selectivity,[7],highly selective α1-blocking agent
same,effect on pain in patients with SMP,[5],can be effective in relieving pain
CC(C)NCC(O)COc1cccc2ccccc12 (stereo not shown) [propranolol],effect on pain when added after α-adrenergic blockade,"[8]; 0.5 mg intravenously, five minutes after last phentolamine dose",did not add appreciably to the analgesia
same,effect on pain in patients with SMP,[5],little effect on SMP

# Reference: patent publication USRE41998E1, “Compositions and methods of treatment of sympathetically maintained pain” (Arclon Therapeutics, Inc., priority 1990, dated 2010)
